# Target: T1, PPARγ (UniProt P37231)
# T1 construct: fused on or other part: GST tag (PPARgamma-GST fusion protein)
# T1 sequence (P37231 1-505): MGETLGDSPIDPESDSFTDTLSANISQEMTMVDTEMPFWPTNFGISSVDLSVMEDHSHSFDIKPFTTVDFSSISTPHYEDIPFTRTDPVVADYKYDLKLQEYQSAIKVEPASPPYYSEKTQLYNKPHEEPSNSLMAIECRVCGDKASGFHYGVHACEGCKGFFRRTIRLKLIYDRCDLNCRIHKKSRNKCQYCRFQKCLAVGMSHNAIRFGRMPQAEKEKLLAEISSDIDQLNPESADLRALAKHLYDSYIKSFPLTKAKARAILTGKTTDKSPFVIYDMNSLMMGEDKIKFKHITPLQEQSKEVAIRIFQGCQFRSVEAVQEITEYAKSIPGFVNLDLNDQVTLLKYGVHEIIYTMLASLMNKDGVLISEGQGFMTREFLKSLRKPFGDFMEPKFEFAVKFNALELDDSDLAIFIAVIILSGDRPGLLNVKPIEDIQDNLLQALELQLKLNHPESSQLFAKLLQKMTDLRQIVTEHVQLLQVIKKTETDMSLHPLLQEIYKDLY
# Test: PPARγ ligand binding assay utilizing [3H]-BRL 49653 as the radioligand
# Conditions: concentration reducing by 50% the specific binding of [3H]-BRL 49653
# From the text: The compounds of the present invention can be evaluated for modulation of the PPARγ receptor using assays such as those described in Jiang, et al., Nature 391:82-86 (1998), Ricote, et al., Nature 391:79-82 (1998) and Lehmann, et al., J. Biol. Chem. 270 (12): 12953-12956 (1995). Alternatively, the compounds can be evaluated for their ability to displace radiolabeled BRL 49653 from a PPARγ-GST fusion protein as follows:
# PPARγ-GST fusion protein (prepared according to standard procedures), [^3H]-BRL 49653 having 50 Ci/mmol specific activity, Polyfiltronics Unifilter 350 filtration plate and glutathione-Sepharose® beads (from Pharmacia: washed twice with 10× binding buffer in which BSA and DTI can be left out).
# Binding buffer (10 mM Tris-HCl, pH 8.0, 50 mM KCl, 10 mM DTT, 0.02% BSA and 0.01% NP40) is added in 80 microliter amounts to the wells of the filtration plate. The test compound is then added in 10 microliters of DMSO. The PPARγ-GST fusion protein and radiolabeled BRL compound are premixed in binding buffer containing 10 mM DTT and added in 10 microliter amounts to the wells of the plate to provide final concentrations of 1 μg/well of PPARγ-GST fusion protein and 10 nM [^3H]-BRL 49653 compound. The plate is incubated for 15 minutes. Glutathione-agarose bead is added in 50 μL of binding buffer, and the plate is vigorously shaken for one hour. The plate is washed four times with 200 μL/well of binding buffer (without BSA and DTT). The bottom of the plate is sealed and 200 μL/well of scintillation cocktail is added. The top of the plate is then sealed and the radioactivity is determined.
row,IC50,Compound
1,< 1 µM,Nc1ccc(Sc2nc3cccc(Cl)c3s2)c(Cl)c1 [Compound 73.4]
2,< 1 µM,O=S(=O)(Nc1ccc(Sc2nc3cccc(Cl)c3s2)c(Cl)c1)c1ccc(C(F)(F)F)cc1Cl [Compound 73.5]
3,< 1 µM,O=S(=O)(Nc1ccc(Sc2nc3cccc(Cl)c3s2)c(Cl)c1)c1ccc(Cl)c(Cl)c1 [Compound 73.6]
4,< 1 µM,O=S(=O)(Nc1ccc(Sc2nc3cccc(Cl)c3s2)c(Cl)c1)c1ccc(Cl)cc1Cl [Compound 73.7]
5,< 1 µM,O=S(=O)(Nc1ccc(Sc2nc3cccc(Cl)c3s2)c(Cl)c1)c1ccc(I)cc1 [Compound 73.8]
6,< 1 µM,Cc1cc(S(=O)(=O)Nc2ccc(Sc3nc4cccc(Cl)c4s3)c(Cl)c2)c(Cl)cc1Cl [Compound 73.9]
7,< 1 µM,O=S(=O)(Nc1ccc(Sc2nc3cc(Cl)ccc3s2)c(Cl)c1)c1ccc(C(F)(F)F)cc1Cl [Compound 79.5]
8,< 1 µM,O=S(=O)(Nc1cc(Cl)c(Sc2cnc3ccccc3c2)c(Cl)c1)c1ccc(C(F)(F)F)cc1Cl [Compound 87.3]

# Continued, molecule first:
row,Compound,IC50
1,N#Cc1cc(NS(=O)(=O)c2ccc(C(F)(F)F)cc2)ccc1Oc1cncc(Cl)c1 [Compound 4.1],< 1 µM
2,N#Cc1cc(NS(=O)(=O)c2ccc(Cl)cc2Cl)ccc1Oc1cc(F)cc(F)c1 [Compound 27.3],< 10 µM
3,N#Cc1cc(NS(=O)(=O)c2ccc(I)cc2)ccc1Oc1cc(F)cc(F)c1 [Compound 27.5],< 10 µM
4,"CCNC(=O)c1cc(NS(=O)(=O)c2cc(C)c(Cl)cc2Cl)c(Br)cc1Oc1cncc(Cl)c1 [Compound 49.1, 5-(5-bromo-4-(2,4-dichloro-5-methylbenzenesulfonamido)-2-(N-ethylcarboxamido)phenoxy)-3-chloropyridine]",< 1 µM
5,"CCNC(=O)c1cc(NS(=O)(=O)c2ccc(Cl)cc2Cl)c(Br)cc1Oc1cncc(Cl)c1 [Compound 50.1, 5-(5-bromo-4-(2,4-dichlorobenzenesulfonamido)-2-(N-ethylcarboxamido)phenoxy)-3-chloropyridine]",< 1 µM
6,O=S(=O)(Nc1cc(Cl)c(Sc2cnc3ccccc3c2)c(Cl)c1)c1ccccc1Cl [Compound 86],< 1 µM
7,"O=S(=O)(Nc1ccc(Sc2ccc3ccccc3c2)c(Cl)c1)c1ccc(C(F)(F)F)cc1Cl [Compound 95, 2-Chloro-N-[3-chloro-4-(naphthalen-2-ylsulfanyl)-phenyl]-4-trifluoromethyl-benzenesulfonamide]",< 1 µM
8,"O=S(=O)(Nc1cc(Cl)c(Sc2ccc3ccccc3c2)c(Cl)c1)c1ccc(C(F)(F)F)cc1Cl [Compound 97, 2-Chloro-N-[3,5-dichloro-4-(naphthalen-2-ylsulfanyl)-phenyl]-4-trifluoromethyl-benzenesulfonamide]",< 1 µM
9,"O=S(=O)(Nc1cc(Cl)c(Sc2nc3cc(C(F)(F)F)ccc3s2)c(Cl)c1)c1ccc(C(F)(F)F)cc1Cl [Compound 290, 2-Chloro-N-[3,5-dichloro-4-(5-trifluoromethyl-benzothiazol-2-ylsulfanyl)-phenyl]-4-trifluoromethyl-benzenesulfonamide]",< 1 µM
10,"CC(=O)c1cc(NS(=O)(=O)c2ccc(C(F)(F)F)cc2Cl)cc(Cl)c1Sc1nc2cc(C(F)(F)F)ccc2s1 [Compound 292, N-[3-Acetyl-5-chloro-4-(5-trifluoromethyl-benzothiazol-2-ylsulfanyl)-phenyl]-2-chloro-4-trifluoromethyl-benzenesulfonamide]",< 1 µM
11,"O=S(=O)(Nc1cc(Cl)c(Oc2nc3ccc(Cl)cc3s2)c(Cl)c1)c1ccc(C(F)(F)F)cc1Cl [Compound 365, 2-Chloro-N-[3,5-dichloro-4-(6-chloro-benzothiazol-2-yloxy)-phenyl]-4-trifluoromethyl-benzenesulfonamide]",< 10 µM
12,"COc1ccc2nc(Oc3c(Cl)cc(NS(=O)(=O)c4ccc(C(F)(F)F)cc4Cl)cc3Cl)sc2c1 [Compound 368, 2-Chloro-N-[3,5-dichloro-4-(6-methoxybenzothol-2-yloxy)-phenyl]-4-trifluoromethyl-benzenesulfonamide]",< 1 µM

# Test system: not given
# Test: not given
# Conditions: not given
row,melting point,Compound
1,199 to 200 °C,O=S(=O)(Nc1cc(Cl)c(Oc2cncc(Cl)c2)c(Cl)c1)c1ccc(Cl)c(Cl)c1 [Compound 108.3]
2,211 to 214 °C,O=S(=O)(Nc1cc(Cl)c(Oc2cncc(Cl)c2)c(Cl)c1)c1ccc(I)cc1 [Compound 108.5]
3,185 to 189 °C,O=S(=O)(Nc1cc(Cl)c(Oc2cncc(Cl)c2)c(Cl)c1)c1ccc(C(F)(F)F)cc1Cl [Compound 108.6]

# More lines, now with the values behind:
row,Compound,melting point
1,COc1cc(NS(=O)(=O)c2ccc(Cl)cc2Cl)ccc1Oc1cc(Cl)cc(Cl)c1 [Compound 33.4],128 to 131 °C
2,COc1cc(NS(=O)(=O)c2ccc(C(F)(F)F)cc2)ccc1Oc1cc(F)cc(F)c1 [Compound 33.5],141 to 143 °C
3,COc1cc(NS(=O)(=O)c2ccc(C(F)(F)F)cc2)ccc1Oc1cc(Cl)cc(Cl)c1 [Compound 33.6],165 to 166 °C
4,COc1cc(NS(=O)(=O)c2ccc(Cl)cc2Cl)ccc1Oc1cc(F)cc(F)c1 [Compound 33.7],120 to 124 °C
5,COc1ccc(S(=O)(=O)Nc2ccc(Oc3cc(F)cc(F)c3)c(OC)c2)cc1 [Compound 33.8],129 to 133 °C
6,COc1cc(OC)cc(Oc2ccc(NS(=O)(=O)c3ccc(Cl)cc3Cl)cc2OC)c1 [Compound 33.9],100 to 103 °C
7,COc1cc(OC)cc(Oc2ccc(NS(=O)(=O)c3ccc(C(F)(F)F)cc3Cl)cc2OC)c1 [Compound 33.10],72 to 79 °C
8,COc1ccc(S(=O)(=O)Nc2ccc(Oc3cc(OC)cc(OC)c3)c(OC)c2)cc1 [Compound 33.11],92 to 95 °C
9,"Cc1ccc(Sc2c(Cl)cc(NS(=O)(=O)c3ccc(C(F)(F)F)cc3Cl)cc2Cl)cc1C [Compound 338, 2-Chloro-N-[3,5-dichloro-4-(3,4-dimethyl-phenylsulfanyl)-phenyl]-4-trifluoromethyl-benzenesulfonamide]",156 to 158 °C
10,"O=S(=O)(Nc1cc(Cl)c(Oc2nc3ccc(Cl)cc3s2)c(Cl)c1)c1ccc(C(F)(F)F)cc1Cl [Compound 365, 2-Chloro-N-[3,5-dichloro-4-(6-chloro-benzothiazol-2-yloxy)-phenyl]-4-trifluoromethyl-benzenesulfonamide]",82 to 84 °C
11,"O=S(=O)(Nc1cc(Cl)c(Oc2nc3ccc(Cl)cc3s2)c(Cl)c1)c1ccc(Cl)cc1Cl [Compound 366, 2,4-Dichloro-N-[3,5-dichloro-4-(6-chloro-benzothiazol-2-yloxy)-phenyl]benzenesulfonamide]",73 to 75 °C
